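All cell lines were grown in 96-well plates and treated with compound for 48 hours. GI50 = concentration required for 50% inhibition of growth.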 Activity calls are given as the source filed them. Cut-off read from the data, not from the text of the source: active = GI50 up to about 1.1 µM and inactive = higher.
Assays:
Test in all cases: NCI-60 cell line screen, 48 h
SNB-75 = system: SNB-75
MCF7 = system: MCF7
MDA-MB-435 = system: MDA-MB-435
NCI/ADR-RES = system: NCI/ADR-RES
Malme-3M = system: Malme-3M
MOLT-4 = system: MOLT-4
SK-MEL-2 = system: SK-MEL-2
UACC-257 = system: UACC-257
NCI-H226 = system: NCI-H226
M14 = system: M14
U-251 = system: U-251
KM12 = system: KM12
SK-OV-3 = system: SK-OV-3
UACC-62 = system: UACC-62
MDA-MB-231 = system: MDA-MB-231
OVCAR-5 = system: OVCAR-5
LOX IMVI = system: LOX IMVI
RPMI-8226 = system: RPMI-8226
A498 = system: A498
BT-549 = system: BT-549

SMILES	GI50 (SNB-75)	GI50 (MCF7)	GI50 (MDA-MB-435)	GI50 (NCI/ADR-RES)	GI50 (Malme-3M)	GI50 (MOLT-4)	GI50 (SK-MEL-2)	GI50 (UACC-257)	GI50 (NCI-H226)	GI50 (M14)	GI50 (U-251)	GI50 (KM12)	GI50 (SK-OV-3)	GI50 (UACC-62)	GI50 (MDA-MB-231)	GI50 (OVCAR-5)	GI50 (LOX IMVI)	GI50 (RPMI-8226)	GI50 (A498)	GI50 (BT-549)
CN1CCN(CC(=O)N2c3ccccc3Sc3cc4ccccc4cc32)CC1	14.5 µM (inactive)	15.8 µM (inactive)	11.4 µM (inactive)	16.1 µM (inactive)	13.6 µM (inactive)	12.2 µM (inactive)	17.5 µM (inactive)	11.6 µM (inactive)	22.7 µM (inactive)	13.8 µM (inactive)	14.3 µM (inactive)	17 µM (inactive)	16.1 µM (inactive)	17.1 µM (inactive)	14.6 µM (inactive)	14.8 µM (inactive)	15.5 µM (inactive)	14.6 µM (inactive)	13.7 µM (inactive)	15.1 µM (inactive)
S=C(c1c[nH]c2ccccc12)N1CCOCC1	0.52 µM (active)	> 100 µM (inactive)	> 100 µM (inactive)	> 100 µM (inactive)	25 µM (inactive)	> 100 µM (inactive)	> 100 µM (inactive)	> 100 µM (inactive)	24.6 µM (inactive)	> 100 µM (inactive)	> 100 µM (inactive)	> 100 µM (inactive)	> 100 µM (inactive)	> 100 µM (inactive)	> 100 µM (inactive)	> 100 µM (inactive)	> 100 µM (inactive)	> 100 µM (inactive)	> 100 µM (inactive)	> 100 µM (inactive)
COc1cccc2c1C1(O)C2CCCCCCCCCC12OCCCO2 (stereo not given)	> 44.1 µM (inactive)	19.8 µM (inactive)	24.6 µM (inactive)	> 100 µM (inactive)	> 47 µM (inactive)	6.3 µM (inactive)	> 40.5 µM (inactive)	> 69.2 µM (inactive)	> 47.9 µM (inactive)	> 58.1 µM (inactive)	8.63 µM (inactive)	> 38 µM (inactive)	> 45.3 µM (inactive)	> 100 µM (inactive)	33 µM (inactive)	> 40.7 µM (inactive)	10.5 µM (inactive)	7.29 µM (inactive)	> 58.2 µM (inactive)	92 µM (inactive)
CC(C)(C)c1cc(C(C)(C)C)c2sc(=S)oc2c1O	6.49 µM (inactive)	6.79 µM (inactive)	8.17 µM (inactive)	9.89 µM (inactive)	15.8 µM (inactive)	5.2 µM (inactive)	8.79 µM (inactive)	14.3 µM (inactive)	15.2 µM (inactive)	10.4 µM (inactive)	6.3 µM (inactive)	4.79 µM (inactive)	17.9 µM (inactive)	10.4 µM (inactive)	13.6 µM (inactive)	7.46 µM (inactive)	5.05 µM (inactive)	7.33 µM (inactive)	12.9 µM (inactive)	8.51 µM (inactive)
C[n+]1cccc(/C=C/c2ccc3cccc(O)c3n2)c1	> 100 µM (inactive)	72.4 µM (inactive)	> 100 µM (inactive)	> 100 µM (inactive)	19.3 µM (inactive)	54.5 µM (inactive)	> 100 µM (inactive)	> 100 µM (inactive)	> 100 µM (inactive)	> 100 µM (inactive)	49.2 µM (inactive)	> 100 µM (inactive)	> 100 µM (inactive)	> 100 µM (inactive)	> 100 µM (inactive)	> 100 µM (inactive)	> 100 µM (inactive)	> 100 µM (inactive)	> 100 µM (inactive)	84.9 µM (inactive)
NS(=O)(=O)c1ccc(/N=N/c2c(O)c(C(=O)O)cc3ccccc23)cc1	> 100 µM (inactive)	> 90.2 µM (inactive)	45.4 µM (inactive)	> 100 µM (inactive)	26.1 µM (inactive)	> 100 µM (inactive)	> 100 µM (inactive)	> 100 µM (inactive)	> 100 µM (inactive)	> 75.9 µM (inactive)	49.3 µM (inactive)	> 75.7 µM (inactive)	> 100 µM (inactive)	37.2 µM (inactive)	> 100 µM (inactive)	> 100 µM (inactive)	82.6 µM (inactive)	> 100 µM (inactive)	> 100 µM (inactive)	> 100 µM (inactive)
Cc1nc(C)c(N2CCN(S(=O)(=O)N(Cc3ccccc3)Cc3ccccc3)CC2)c(O)n1	5.31 µM (inactive)	> 43.6 µM (inactive)	> 100 µM (inactive)	> 61.4 µM (inactive)	> 100 µM (inactive)	> 100 µM (inactive)	26.7 µM (inactive)	> 100 µM (inactive)	0.279 µM (active)	> 100 µM (inactive)	5.21 µM (inactive)	> 100 µM (inactive)	7.76 µM (inactive)	5.12 µM (inactive)	> 35.7 µM (inactive)	29.2 µM (inactive)	43.5 µM (inactive)	> 100 µM (inactive)	> 51.9 µM (inactive)	> 57.4 µM (inactive)
COC(=O)[C@]12CSC[C@H]1C[C@H](c1ccccc1OC)N2	> 100 µM (inactive)	> 100 µM (inactive)	> 100 µM (inactive)	> 100 µM (inactive)	> 100 µM (inactive)	> 100 µM (inactive)	> 100 µM (inactive)	> 100 µM (inactive)	> 100 µM (inactive)	> 100 µM (inactive)	> 100 µM (inactive)	> 100 µM (inactive)	> 100 µM (inactive)	> 100 µM (inactive)	> 100 µM (inactive)	> 100 µM (inactive)	> 100 µM (inactive)	> 100 µM (inactive)	> 100 µM (inactive)	> 100 µM (inactive)
Clc1nncc2sc(-c3ccccc3)nc12	15.9 µM (inactive)	25.5 µM (inactive)	17.4 µM (inactive)	23.2 µM (inactive)	22.1 µM (inactive)	28.8 µM (inactive)	16.4 µM (inactive)	18.3 µM (inactive)	26 µM (inactive)	17.7 µM (inactive)	15 µM (inactive)	28.9 µM (inactive)	28.7 µM (inactive)	16.4 µM (inactive)	18.6 µM (inactive)	83.2 µM (inactive)	14.7 µM (inactive)	35.4 µM (inactive)	40.6 µM (inactive)	13.9 µM (inactive)
Cc1nc(Cl)c(Cl)c(Cl)n1	1.18 µM (inactive)	0.575 µM (active)	0.531 µM (active)	0.354 µM (active)	0.202 µM (active)	< 0.0142 µM (active)	0.51 µM (active)	0.687 µM (active)	2.59 µM (inactive)	0.119 µM (active)	2.04 µM (inactive)	0.405 µM (active)	3.47 µM (inactive)	0.375 µM (active)	0.276 µM (active)	1.32 µM (inactive)	0.0596 µM (active)	< 0.0398 µM (active)	2.32 µM (inactive)	0.199 µM (active)
COc1cccc(/C=N/n2c(Cc3ccc(Cl)cc3)n[nH]c2=O)c1	11.7 µM (inactive)	29.9 µM (inactive)	> 100 µM (inactive)	30.6 µM (inactive)	44.6 µM (inactive)	> 100 µM (inactive)	32.7 µM (inactive)	> 100 µM (inactive)	> 28.2 µM (inactive)	> 100 µM (inactive)	22.8 µM (inactive)	> 100 µM (inactive)	27.7 µM (inactive)	34.2 µM (inactive)	19.7 µM (inactive)	> 78.7 µM (inactive)	25.6 µM (inactive)	> 77.6 µM (inactive)	59 µM (inactive)	26.1 µM (inactive)
O=C(O)c1c2c(cc3c1CC1(Cc4cc5c(cc4C1=O)CCC5)C3)CCC2 (stereo not given)	> 100 µM (inactive)	42.4 µM (inactive)	> 100 µM (inactive)	> 100 µM (inactive)	> 100 µM (inactive)	50.8 µM (inactive)	> 100 µM (inactive)	56.6 µM (inactive)	> 100 µM (inactive)	> 100 µM (inactive)	85.9 µM (inactive)	89.5 µM (inactive)	> 100 µM (inactive)	> 100 µM (inactive)	> 100 µM (inactive)	> 100 µM (inactive)	57.1 µM (inactive)	> 100 µM (inactive)	> 100 µM (inactive)	86.3 µM (inactive)
O=C(O)/C=C/c1ccc(OS(=O)(=O)O)cc1	> 100 µM (inactive)	> 100 µM (inactive)	> 100 µM (inactive)	> 100 µM (inactive)	> 100 µM (inactive)	> 100 µM (inactive)	> 100 µM (inactive)	> 100 µM (inactive)	> 100 µM (inactive)	> 100 µM (inactive)	> 100 µM (inactive)	> 100 µM (inactive)	> 100 µM (inactive)	> 100 µM (inactive)	> 100 µM (inactive)	> 100 µM (inactive)	> 100 µM (inactive)	> 100 µM (inactive)	> 100 µM (inactive)	> 100 µM (inactive)
C/C(=N\Nc1nc2ccccc2o1)c1ncccn1	1.85 µM (inactive)	0.0121 µM (active)	0.0573 µM (active)	< 0.0163 µM (active)	< 0.01 µM (active)	< 0.01 µM (active)	0.175 µM (active)	< 0.022 µM (active)	0.118 µM (active)	< 0.0192 µM (active)	0.0213 µM (active)	0.817 µM (active)	0.0312 µM (active)	0.0646 µM (active)	< 0.0208 µM (active)	< 0.0267 µM (active)	0.0115 µM (active)	0.0137 µM (active)	0.332 µM (active)	0.643 µM (active)

Source: ChEMBL document CHEMBL1201862, “PubChem BioAssay data set” (2004)
